# Data from ChEMBL document CHEMBL1681643 (Bioorg Med Chem Lett, 2011).
# Calls of active or inactive are those of the source. The calls are words filed in the database; no cut-off is given here. Non-standard residues stand in square brackets, D forms with d. Residues, ends and D or L forms follow the SMILES beside them. *: point of attachment. S(CH2)2OCO2(CPT-20-yl) = CC[C@@]1(OC(=O)OCCS*)C(=O)OCc2c1cc1n(c2=O)Cc2cc3ccccc3nc2-1; Ahx = NCCCCCC(=O)O
# Legend:
# U-251 = test: Anticancer activity against NK1R overexpressing human U251MG cells assessed as cell viability after 72 hrs by MTT assay; type: functional, cell-based
# CHO [1] = test: Drug uptake in NK1R overexpressing CHO cells at 10 uM after 30 mins by confocal microscopy; type: ADME, cell-based, Cricetulus griseus; conditions: chinese hamster, 0.5 h
# CHO [2] = test: Cytotoxicity against NK1R overexpressing CHO cells assessed as cell viability after 72 hrs by MTT assay; type: functional, cell-based; conditions: Cricetulus griseus
# [3] = Solubility of the compound in phosphate buffer at pH 7.4; type: physicochemical
# U-87MG ATCC = test: Anticancer activity against NK1R overexpressing human U87MG cells assessed as cell viability after 72 hrs by MTT assay; type: functional, cell-based
# MDA-MB-231 = test: Anticancer activity against NK1R overexpressing human MDA-MB-231 cells assessed as cell viability after 72 hrs by MTT assay; type: functional, cell-based
# CHO [4] = test: Cytotoxicity against CHO cells assessed as cell proliferation after 72 hrs by MTT assay; type: cell-based, Cricetulus griseus; conditions: chinese hamster
# MCF7 = test: Anticancer activity against NK1R overexpressing human MCF7 cells assessed as cell viability after 72 hrs by MTT assay; type: functional, cell-based
# CHO [5] = test: Drug uptake in CHO cells at 10 uM after 30 mins by confocal microscopy; type: ADME, cell-based, Cricetulus griseus; conditions: chinese hamster, 0.5 h
# CHO [6] = test: Cytotoxicity against CHO cells assessed as cell viability after 72 hrs by MTT assay; type: cell-based, Cricetulus griseus; conditions: chinese hamster
Structure (SMILES),Activity (U-251),Drug uptake (CHO [1]),Activity (CHO [2]),solubility [3] [µg/mL],Activity (U-87MG ATCC),Activity (MDA-MB-231),Activity (CHO [4]),Activity (MCF7),Drug uptake (CHO [5]),Activity (CHO [6])
CC[C@@]1(OC(=O)OCCSSC[C@H](N)C(=O)N[C@@H](CCCNC(=N)N)C(=O)N2CCC[C@H]2C(=O)N[C@@H](CCCCN)C(=O)N2CCC[C@H]2C(=O)N[C@@H](CCC(N)=O)C(=O)N[C@@H](CCC(N)=O)C(=O)N[C@@H](Cc2ccccc2)C(=O)N[C@@H](Cc2ccccc2)C(=O)NCC(=O)N[C@@H](CC(C)C)C(=O)N[C@@H](CCSC)C(N)=O)C(=O)OCc2c1cc1n(c2=O)Cc2cc3ccccc3nc2-1,Dose-dependent effect,Active,Active,103,Dose-dependent effect,Dose-dependent effect,Not Active,Dose-dependent effect,Active,–
CC[C@@]1(OC(=O)OCCSSC[C@H](N)C(=O)NCCCCCC(=O)N[C@@H](CCC(N)=O)C(=O)N[C@@H](Cc2ccccc2)C(=O)N[C@@H](Cc2ccccc2)C(=O)NCC(=O)N[C@@H](CC(C)C)C(=O)N[C@@H](CCSC)C(N)=O)C(=O)OCc2c1cc1n(c2=O)Cc2cc3ccccc3nc2-1 (H-C(S(CH2)2OCO2(CPT-20-yl))[Ahx]QFFGLM-NH2),Dose-dependent effect,Active,Active,8.4,Dose-dependent effect,Dose-dependent effect,Not Active,Dose-dependent effect,Active,–
CC[C@@]1(O)C(=O)OCc2c1cc1n(c2=O)Cc2cc3ccccc3nc2-1 [CAMPTOTHECIN],Dose-dependent effect,Active,–,2.7,Dose-dependent effect,Dose-dependent effect,–,Dose-dependent effect,Active,Toxic
CSCC[C@H](NC(=O)[C@H](CC(C)C)NC(=O)CNC(=O)[C@H](Cc1ccccc1)NC(=O)[C@H](Cc1ccccc1)NC(=O)[C@H](CCC(N)=O)NC(=O)CCCCCNC(=O)[C@@H](N)CS)C(N)=O (H-C[Ahx]QFFGLM-NH2),inactive,–,–,–,inactive,inactive,–,inactive,–,–
